Results from ChEMBL document CHEMBL3585347, “Isolation of cholinesterase and β-secretase 1 inhibiting compounds from Lycopodiella cernua” (Bioorg Med Chem, 2015).
Active and inactive are the calls of the source. No cut-off for these calls is given here.

Assays:
[1] = biological target: T1, Cholinesterase (Homo sapiens, UniProt P06276); assay: Inhibition of BChE (unknown origin) using butyrylthiocholine as substrate assessed as substrate hydrolysis by spectrophotometric/Ellman method
[2] = biological target: Beta-secretase 1 (Homo sapiens, UniProt P56817); assay: Inhibition of human recombinant BACE1 by fluorescence resonance energy transfer (FRET) assay
Sequence of Beta-secretase 1 (P56817 whole entry): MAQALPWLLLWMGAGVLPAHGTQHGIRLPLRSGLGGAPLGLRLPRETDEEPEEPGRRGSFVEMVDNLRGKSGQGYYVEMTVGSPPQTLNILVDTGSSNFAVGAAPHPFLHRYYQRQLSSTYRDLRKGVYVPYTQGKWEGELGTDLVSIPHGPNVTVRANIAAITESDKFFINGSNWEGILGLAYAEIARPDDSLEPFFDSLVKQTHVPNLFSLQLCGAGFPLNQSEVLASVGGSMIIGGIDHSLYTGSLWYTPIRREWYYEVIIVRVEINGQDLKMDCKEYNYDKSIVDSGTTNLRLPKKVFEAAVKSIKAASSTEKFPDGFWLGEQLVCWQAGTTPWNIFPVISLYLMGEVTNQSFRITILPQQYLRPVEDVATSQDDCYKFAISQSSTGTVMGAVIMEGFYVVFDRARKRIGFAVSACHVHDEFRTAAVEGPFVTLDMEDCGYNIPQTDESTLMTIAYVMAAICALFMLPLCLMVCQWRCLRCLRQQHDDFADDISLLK

[3] = biological target: T2, Acetylcholinesterase (Homo sapiens, UniProt P22303); assay: Inhibition of AChE (unknown origin) using acetylthiocholine as substrate assessed as substrate hydrolysis by spectrophotometric/Ellman method
T2 sequence (P22303 whole entry): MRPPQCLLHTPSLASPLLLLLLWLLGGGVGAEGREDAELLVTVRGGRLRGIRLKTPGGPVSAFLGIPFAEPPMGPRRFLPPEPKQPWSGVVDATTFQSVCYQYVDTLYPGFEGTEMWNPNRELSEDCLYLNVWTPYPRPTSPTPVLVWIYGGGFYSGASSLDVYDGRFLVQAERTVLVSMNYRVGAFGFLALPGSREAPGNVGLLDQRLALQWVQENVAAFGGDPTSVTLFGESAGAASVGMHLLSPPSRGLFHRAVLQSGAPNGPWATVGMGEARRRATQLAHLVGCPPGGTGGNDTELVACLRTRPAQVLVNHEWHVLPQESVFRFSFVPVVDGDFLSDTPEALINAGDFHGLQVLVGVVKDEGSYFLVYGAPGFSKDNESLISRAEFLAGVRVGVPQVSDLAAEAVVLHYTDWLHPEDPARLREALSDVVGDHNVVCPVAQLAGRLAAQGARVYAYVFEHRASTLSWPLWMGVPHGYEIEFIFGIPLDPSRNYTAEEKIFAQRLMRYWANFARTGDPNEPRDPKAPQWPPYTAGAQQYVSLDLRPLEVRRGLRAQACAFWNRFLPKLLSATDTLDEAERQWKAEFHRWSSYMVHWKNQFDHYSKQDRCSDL

[4] = biological target: T1, Cholinesterase; assay: Inhibition of BChE (unknown origin) by Dixon plot analysis
[5] = biological target: T2, Acetylcholinesterase; assay: Inhibition of AChE (unknown origin) by Dixon plot analysis
[6] = biological target: T2, Acetylcholinesterase; assay: Mixed type inhibition of AChE (unknown origin) by Lineweaver-Burk plot analysis
[7] = biological target: T1, Cholinesterase; assay: Mixed type inhibition of BChE (unknown origin) by Lineweaver-Burk plot analysis

T1 sequence (P06276 whole entry): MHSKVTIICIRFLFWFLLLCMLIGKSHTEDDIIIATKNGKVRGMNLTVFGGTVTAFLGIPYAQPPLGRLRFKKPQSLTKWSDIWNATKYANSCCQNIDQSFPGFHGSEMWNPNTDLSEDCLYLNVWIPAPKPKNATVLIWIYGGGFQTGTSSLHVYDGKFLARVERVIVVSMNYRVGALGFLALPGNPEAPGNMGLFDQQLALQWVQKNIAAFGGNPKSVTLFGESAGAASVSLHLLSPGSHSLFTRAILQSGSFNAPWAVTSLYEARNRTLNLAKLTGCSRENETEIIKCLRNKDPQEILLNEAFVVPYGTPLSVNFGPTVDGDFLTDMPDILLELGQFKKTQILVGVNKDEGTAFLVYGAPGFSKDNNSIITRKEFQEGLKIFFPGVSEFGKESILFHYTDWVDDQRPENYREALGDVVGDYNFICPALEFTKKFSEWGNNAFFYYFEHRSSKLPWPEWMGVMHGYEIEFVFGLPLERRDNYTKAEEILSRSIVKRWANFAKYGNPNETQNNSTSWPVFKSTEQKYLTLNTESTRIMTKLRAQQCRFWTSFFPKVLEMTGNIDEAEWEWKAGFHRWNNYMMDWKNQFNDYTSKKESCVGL

CC1(C)[C@@H](O)CC[C@@]2(C)[C@H]1CC[C@@]1(C)C[C@@]3(O)CC[C@H]4C(C)(C)[C@@H](O)CC[C@]4(C)[C@H]3CC[C@@H]12
IC50 [1]: > 30 µM
IC50 [2]: > 10 µM
IC50 [3]: > 30 µM

C[C@@]12CC[C@@H]3[C@](C)(CC[C@H](OC(=O)CCc4ccc(O)cc4)[C@]3(C)C(=O)O)[C@H]1CC[C@H]1C(=CC[C@@H]3[C@]1(C)CC[C@@H](O)[C@]3(C)CO)C2
Ki [4]: 0.99 µM
IC50 [1]: 0.42 µM
Ki [5]: 7.97 µM
inhibition [6]: Active
IC50 [2]: > 10 µM
IC50 [3]: 1.69 µM

CC(=O)O[C@H]1CC[C@@]2(C)[C@@H](CC[C@@]3(C)C[C@@]4(O)CC[C@H]5C(C)(C)[C@@H](OC(C)=O)CC[C@]5(C)[C@H]4CC[C@@H]32)C1(C)C
IC50 [1]: > 30 µM
Ki [5]: 2.49 µM
inhibition [6]: Active
IC50 [2]: > 10 µM
IC50 [3]: 0.91 µM

CCCC[C@@H](O)/C=C/C=C/C(=O)O
IC50 [1]: > 30 µM
Ki [5]: 1.17 µM
inhibition [6]: Active
IC50 [2]: 6.91 µM
IC50 [3]: 0.22 µM

CC1(C)C(=O)CC[C@@]2(C)[C@H]1CC[C@@]1(C)CC3=CC(=O)[C@H]4C(C)(C)[C@H](O)CC[C@]4(C)[C@H]3CC[C@@H]12
Ki [4]: 4.78 µM
inhibition [7]: Active
IC50 [1]: > 30 µM
IC50 [2]: 0.23 µM
IC50 [3]: 10.7 µM

C[C@@]12CC[C@@H]3[C@](C)(CC[C@H](OC(=O)c4ccc(O)cc4)[C@]3(C)C(=O)O)[C@H]1CC[C@@H]1[C@@]3(C)CC[C@@H](O)[C@](C)(CO)[C@@H]3C[C@H](O)[C@@]1(O)C2
IC50 [1]: > 30 µM
IC50 [2]: 0.31 µM
IC50 [3]: > 30 µM

C[C@@]12CC[C@@H]3[C@](C)(CC[C@H](OC(=O)/C=C/c4ccc(O)cc4)[C@]3(C)C(=O)O)[C@H]1CC[C@H]1C(=CC[C@@H]3[C@]1(C)CC[C@@H](O)[C@]3(C)CO)C2
IC50 [1]: > 30 µM
IC50 [2]: 1.07 µM
IC50 [3]: > 30 µM

CC1(C)[C@H](O)CC[C@@]2(C)[C@H]1CC[C@@]1(C)CC3=CC[C@H]4C(C)(C)[C@H](O)CC[C@]4(C)[C@H]3CC[C@@H]12
IC50 [1]: > 30 µM
IC50 [2]: > 10 µM
IC50 [3]: > 30 µM

CC1(C)[C@H](O)CC[C@]2(C)[C@H]3CC[C@H]4[C@@](C)(CC[C@@H]5[C@]4(C)CC[C@@H](O)[C@]5(C)C(=O)O)CC3=CC(=O)[C@@H]12
IC50 [1]: > 30 µM
IC50 [2]: > 10 µM
IC50 [3]: > 30 µM

CC1(C)[C@H](O)CC[C@@]2(C)[C@H]1CC[C@@]1(C)CC3=CC[C@H]4C(C)(C)[C@@H](O)CC[C@]4(C)[C@H]3CC[C@@H]12
Ki [4]: 4.88 µM
inhibition [7]: Active
IC50 [1]: 1.37 µM
IC50 [2]: > 10 µM
IC50 [3]: > 30 µM

COc1ccc(C(=O)O[C@H]2CC[C@@]3(C)[C@@H](CC[C@@]4(C)C[C@@]5(O)[C@H](CC[C@@H]43)[C@@]3(C)CC[C@@H](O)C(C)(C)[C@@H]3C[C@@H]5O)[C@@]2(C)C(=O)O)cc1O
IC50 [1]: > 30 µM
IC50 [2]: 0.98 µM
IC50 [3]: 9.98 µM

C[C@@]12CC[C@@H]3[C@](C)(CC[C@H](O)[C@]3(C)C(=O)O)[C@H]1CC[C@H]1C(=CC(=O)[C@@H]3[C@]1(C)CC[C@@H](O)[C@]3(C)CO)C2
IC50 [1]: > 30 µM
IC50 [2]: > 10 µM
IC50 [3]: > 30 µM

COC(=O)[C@]1(C)[C@@H]2CC[C@@]3(C)CC4=CC(=O)[C@@H]5[C@](C)(CC[C@@H](O)[C@]5(C)CO)[C@H]4CC[C@@H]3[C@@]2(C)CC[C@@H]1O [LYCERNUIC KETONE A]
IC50 [1]: > 30 µM
IC50 [2]: > 10 µM
IC50 [3]: > 30 µM
